Oligonucleotides are written 5' to 3', each unit as a sugar letter and its base; * is a phosphorothioate linkage, no mark a phosphodiester; rarer units and linkages stand in square brackets, end groups in braces. Plain capitals give the bases only. d = 2'-deoxy (DNA); r = 2'-OH (RNA)
Target: not listed separately
Assay: reporter assay of Huesken 2005
Settings: siRNA
Note: test concentration or dose not given here.

In order of falling normalised inhibition (eCFP-eYFP dual reporter):
1. sense rArArArCrGrCrCrUrArCrGrGrGrArGrUrCrArAdTdT / antisense rUrUrGrArCrUrCrCrCrGrUrArGrGrCrGrUrUrUdGdC  93.6%
2. sense rCrArGrGrGrUrArUrGrCrArCrArCrCrCrGrUrGdTdT / antisense rCrArCrGrGrGrUrGrUrGrCrArUrArCrCrCrUrGdTdT  70.6%
3. sense rUrCrArUrUrGrUrUrCrCrUrGrUrGrArArCrUrGdTdT / antisense rCrArGrUrUrCrArCrArGrGrArArCrArArUrGrAdAdA  66.7%
4. sense rCrUrUrGrCrCrUrCrUrGrArGrGrArArUrGrArGdTdT / antisense rCrUrCrArUrUrCrCrUrCrArGrArGrGrCrArArGdAdA  59.8%
5. sense rArCrUrCrCrUrUrCrCrUrUrCrUrCrUrGrArArGdTdT / antisense rCrUrUrCrArGrArGrArArGrGrArArGrGrArGrUdCdC  50.7%
6. sense rUrUrUrGrCrArGrUrUrGrGrArGrArUrUrCrArGdTdT / antisense rCrUrGrArArUrCrUrCrCrArArCrUrGrCrArArAdCdG  48.6%
7. sense rUrCrCrCrCrArUrArGrGrCrUrUrUrGrGrArGrCdTdT / antisense rGrCrUrCrCrArArArGrCrCrUrArUrGrGrGrGrAdTdA  35.8%

Target: UBE2V1
Assay: reporter assay of Huesken 2005
Settings: siRNA

In order of rising normalised inhibition (eCFP-eYFP dual reporter):
1. sense rArCrCrUrArGrArArArArUrUrUrCrArCrUrGrCdTdT / antisense rGrCrArGrUrGrArArArUrUrUrUrCrUrArGrGrUdTdC  36.5%
2. sense rUrGrArArCrCrUrArGrArArArArUrUrUrCrArCdTdT / antisense rGrUrGrArArArUrUrUrUrCrUrArGrGrUrUrCrAdAdG  43%
3. sense rArArArUrUrUrCrArCrUrGrCrArArArGrGrArGdTdT / antisense rCrUrCrCrUrUrUrGrCrArGrUrGrArArArUrUrUdTdC  45.8%
4. sense rArArCrCrUrArGrArArArArUrUrUrCrArCrUrGdTdT / antisense rCrArGrUrGrArArArUrUrUrUrCrUrArGrGrUrUdCdA  49.4%
5. sense rCrUrUrGrArArCrCrUrArGrArArArArUrUrUrCdTdT / antisense rGrArArArUrUrUrUrCrUrArGrGrUrUrCrArArGdTdC  53.5%
6. sense rGrArArGrArArCrUrCrGrArArGrArArGrGrCrCdTdT / antisense rGrGrCrCrUrUrCrUrUrCrGrArGrUrUrCrUrUrCdCdA  53.8%
7. sense rUrCrUrArGrArArGrArUrGrArCrGrArArGrArCdTdT / antisense rGrUrCrUrUrCrGrUrCrArUrCrUrUrCrUrArGrAdCdC  58%
8. sense rArGrArArArGrGrArGrUrArGrGrArGrArUrGrGdTdT / antisense rCrCrArUrCrUrCrCrUrArCrUrCrCrUrUrUrCrUdGdG  58.6%
9. sense rArGrGrArGrArUrGrGrCrArCrArGrUrUrArGrCdTdT / antisense rGrCrUrArArCrUrGrUrGrCrCrArUrCrUrCrCrUdAdC  60.9%
10. sense rCrCrUrCrCrArArGrArArCrArArUrUrUrArUrGdTdT / antisense rCrArUrArArArUrUrGrUrUrCrUrUrGrGrArGrGdCdC  63.1%
11. sense rCrCrUrUrUrGrUrArArGrArUrUrUrGrUrArArCdTdT / antisense rGrUrUrArCrArArArUrCrUrUrArCrArArArGrGdGdG  63.8%
12. sense rArArArGrGrArGrUrArArArArGrUrCrCrCrUrCdTdT / antisense rGrArGrGrGrArCrUrUrUrUrArCrUrCrCrUrUrUdGdC  65.6%
13. sense rArArUrUrCrArUrArUrArGrCrArUrCrArArArGdTdT / antisense rCrUrUrUrGrArUrGrCrUrArUrArUrGrArArUrUdCdT  70%
14. sense rGrGrArUrGrArUrArArUrUrGrGrGrCrCrUrCrCdTdT / antisense rGrGrArGrGrCrCrCrArArUrUrArUrCrArUrCrCdCdT  70.5%
15. sense rUrGrCrUrArGrCrArArArArUrGrGrCrArGrArAdTdT / antisense rUrUrCrUrGrCrCrArUrUrUrUrGrCrUrArGrCrAdCdT  71.4%
16. sense rCrArArArGrUrUrGrUrCrCrUrGrCrArArGrArGdTdT / antisense rCrUrCrUrUrGrCrArGrGrArCrArArCrUrUrUrGdAdT  71.5%
17. sense rGrUrCrUrArArArGrArArArArUrArUrGrArArAdTdT / antisense rUrUrUrCrArUrArUrUrUrUrCrUrUrUrArGrArCdAdT  75.3%
18. sense rGrCrCrUrCrCrArArGrArArCrArArUrUrUrArUdTdT / antisense rArUrArArArUrUrGrUrUrCrUrUrGrGrArGrGrCdCdC  76.5%
19. sense rCrArUrArUrArGrCrArUrCrArArArGrUrUrGrUdTdT / antisense rArCrArArCrUrUrUrGrArUrGrCrUrArUrArUrGdAdA  77.7%
20. sense rUrUrCrArCrUrGrCrArArArGrGrArGrUrArArAdTdT / antisense rUrUrUrArCrUrCrCrUrUrUrGrCrArGrUrGrArAdAdT  81.4%
21. sense rGrCrArArGrArGrCrUrUrCrGrGrCrGrCrCrUrAdTdT / antisense rUrArGrGrCrGrCrCrGrArArGrCrUrCrUrUrGrCdAdG  82.6%
22. sense rUrArGrCrUrGrGrGrGrUrCrUrArGrArArGrArUdTdT / antisense rArUrCrUrUrCrUrArGrArCrCrCrCrArGrCrUrAdAdC  82.8%
23. sense rArArUrGrGrArGrUrGrGrUrGrGrArCrCrCrArAdTdT / antisense rUrUrGrGrGrUrCrCrArCrCrArCrUrCrCrArUrUdAdG  83.5%
24. sense rGrGrUrGrGrArCrCrCrArArGrArGrCrCrArUrAdTdT / antisense rUrArUrGrGrCrUrCrUrUrGrGrGrUrCrCrArCrCdAdC  84.1%
25. sense rCrCrCrUrCrGrCrArArUrUrUrCrCrGrArCrUrGdTdT / antisense rCrArGrUrCrGrGrArArArUrUrGrCrGrArGrGrGdAdC  84.5%
26. sense rUrCrGrCrArArUrUrUrCrCrGrArCrUrGrUrUrGdTdT / antisense rCrArArCrArGrUrCrGrGrArArArUrUrGrCrGrAdGdG  85.6%
27. sense rArGrArArGrGrCrCrArGrArArArGrGrArGrUrAdTdT / antisense rUrArCrUrCrCrUrUrUrCrUrGrGrCrCrUrUrCrUdTdC  86.1%
28. sense rCrArGrUrGrCrUrArGrCrArArArArUrGrGrCrAdTdT / antisense rUrGrCrCrArUrUrUrUrGrCrUrArGrCrArCrUrGdAdT  87.5%
29. sense rCrUrArGrArArGrArUrGrArCrGrArArGrArCrAdTdT / antisense rUrGrUrCrUrUrCrGrUrCrArUrCrUrUrCrUrArGdAdC  88.8%
30. sense rGrUrArGrGrArGrArUrGrGrCrArCrArGrUrUrAdTdT / antisense rUrArArCrUrGrUrGrCrCrArUrCrUrCrCrUrArCdTdC  88.8%
31. sense rCrGrArArUrArUrArCrArGrCrCrUrUrArArArAdTdT / antisense rUrUrUrUrArArGrGrCrUrGrUrArUrArUrUrCrGdGdT  89.4%
32. sense rUrGrGrCrArGrArArUrUrCrArUrArUrArGrCrAdTdT / antisense rUrGrCrUrArUrArUrGrArArUrUrCrUrGrCrCrAdTdT  89.7%
33. sense rUrCrArArArGrUrUrGrUrCrCrUrGrCrArArGrAdTdT / antisense rUrCrUrUrGrCrArGrGrArCrArArCrUrUrUrGrAdTdG  89.8%
34. sense rArGrArUrGrGrArCrArGrGrGrArUrGrArUrArAdTdT / antisense rUrUrArUrCrArUrCrCrCrUrGrUrCrCrArUrCrUdTdG  90%
35. sense rArGrArGrCrCrArUrArUrCrArGrUrGrCrUrArGdTdT / antisense rCrUrArGrCrArCrUrGrArUrArUrGrGrCrUrCrUdTdG  90.3%
36. sense rGrArGrCrCrArUrArUrCrArGrUrGrCrUrArGrCdTdT / antisense rGrCrUrArGrCrArCrUrGrArUrArUrGrGrCrUrCdTdT  90.9%
37. sense rArGrUrArArArArGrUrCrCrCrUrCrGrCrArArUdTdT / antisense rArUrUrGrCrGrArGrGrGrArCrUrUrUrUrArCrUdCdC  91%
38. sense rGrUrCrUrArGrArArGrArUrGrArCrGrArArGrAdTdT / antisense rUrCrUrUrCrGrUrCrArUrCrUrUrCrUrArGrArCdCdC  92%
39. sense rGrCrCrArUrArUrCrArGrUrGrCrUrArGrCrArAdTdT / antisense rUrUrGrCrUrArGrCrArCrUrGrArUrArUrGrGrCdTdC  92.1%
40. sense rArUrUrUrCrArCrUrGrCrArArArGrGrArGrUrAdTdT / antisense rUrArCrUrCrCrUrUrUrGrCrArGrUrGrArArArUdTdT  95%
41. sense rCrCrUrArArUrGrArUrGrUrCrUrArArArGrArAdTdT / antisense rUrUrCrUrUrUrArGrArCrArUrCrArUrUrArGrGdCdG  95.1%
42. sense rCrArArUrUrUrCrCrGrArCrUrGrUrUrGrGrArAdTdT / antisense rUrUrCrCrArArCrArGrUrCrGrGrArArArUrUrGdCdG  95.3%
43. sense rArGrUrCrCrCrUrCrGrCrArArUrUrUrCrCrGrAdTdT / antisense rUrCrGrGrArArArUrUrGrCrGrArGrGrGrArCrUdTdT  96%
44. sense rArArCrCrGrArArUrArUrArCrArGrCrCrUrUrAdTdT / antisense rUrArArGrGrCrUrGrUrArUrArUrUrCrGrGrUrUdTdT  96.1%
45. sense rGrGrGrUrCrUrArGrArArGrArUrGrArCrGrArAdTdT / antisense rUrUrCrGrUrCrArUrCrUrUrCrUrArGrArCrCrCdCdA  96.3%
